{"source": "ChEMBL document CHEMBL5137036", "about": "“Design and synthesis of highly TRAIL expression HDAC inhibitors based on ONC201 to promote apoptosis of colorectal cancer” (Eur J Med Chem, 2022)", "key": {"[1]": {"assay": "Toxicity in BALB/c mouse xenografted with human HCT-116 cells assessed as morphological changes in heart at 12.5 to 25 mg/kg, po qd administered for 21 days by H & E staining based microscopic analysis", "format": "organism-based", "conditions": "in vivo, 504 h, dose 12.5-25 mg/kg, time 21 day"}, "Histone deacetylase 4": {"molecular_target": "Histone deacetylase 4 (Homo sapiens, UniProt P56524)", "sequence (P56524 whole entry)": "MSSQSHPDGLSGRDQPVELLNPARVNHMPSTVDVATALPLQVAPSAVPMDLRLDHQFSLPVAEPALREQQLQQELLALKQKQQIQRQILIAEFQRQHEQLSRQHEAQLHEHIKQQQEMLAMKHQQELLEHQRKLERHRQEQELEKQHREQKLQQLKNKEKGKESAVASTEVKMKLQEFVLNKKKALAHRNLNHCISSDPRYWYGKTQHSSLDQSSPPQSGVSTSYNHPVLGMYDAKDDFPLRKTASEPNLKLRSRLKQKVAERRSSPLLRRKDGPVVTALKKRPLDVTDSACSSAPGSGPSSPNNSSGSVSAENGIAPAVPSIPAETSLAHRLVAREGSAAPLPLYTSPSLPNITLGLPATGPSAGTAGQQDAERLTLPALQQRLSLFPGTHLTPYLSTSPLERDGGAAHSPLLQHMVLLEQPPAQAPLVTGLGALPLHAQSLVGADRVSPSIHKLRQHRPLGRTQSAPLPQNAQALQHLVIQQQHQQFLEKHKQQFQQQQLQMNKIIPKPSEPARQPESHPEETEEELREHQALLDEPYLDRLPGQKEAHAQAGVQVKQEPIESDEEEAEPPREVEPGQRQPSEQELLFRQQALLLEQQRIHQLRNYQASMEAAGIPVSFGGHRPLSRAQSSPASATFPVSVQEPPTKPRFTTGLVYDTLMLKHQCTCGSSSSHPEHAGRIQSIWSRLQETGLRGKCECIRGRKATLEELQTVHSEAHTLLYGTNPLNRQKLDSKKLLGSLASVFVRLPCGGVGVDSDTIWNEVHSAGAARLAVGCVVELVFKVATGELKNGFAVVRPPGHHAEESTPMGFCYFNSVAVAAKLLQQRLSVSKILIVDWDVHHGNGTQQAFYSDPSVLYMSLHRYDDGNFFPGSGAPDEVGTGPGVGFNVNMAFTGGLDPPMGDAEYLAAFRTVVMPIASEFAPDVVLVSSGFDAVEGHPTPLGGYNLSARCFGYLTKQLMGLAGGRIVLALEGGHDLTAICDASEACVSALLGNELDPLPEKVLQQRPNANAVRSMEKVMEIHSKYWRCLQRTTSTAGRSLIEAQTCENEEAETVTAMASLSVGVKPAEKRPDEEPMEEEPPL", "assay": "Inhibition of human HDAC4 using Boc-Lys(trifluoroacetyl)-AMC as fluorogenic substrate preincubated for 10 mins followed by substrate addition by fluorescence based analysis"}, "HCT-116 [2]": {"tested_on": "HCT-116", "assay": "Antitumor activity against human HCT-116 cells xenografted in BALB/c mouse assessed as reduction in tumor growth by measuring T/C ratio at 25 mg/kg, po qd administered for 3 weeks and measured every 3 days by vernier caliper analysis", "format": "functional"}, "HCT-116 [3]": {"tested_on": "HCT-116", "assay": "Induction of apoptosis in human HCT-116 cells assessed as increase in Bax protein expression incubated for 12 hrs by Western blot analysis", "format": "functional, cell-based", "conditions": "dose 0.125-0.5 µM, DDE = dose-dependent effect"}, "HCT-116 [4]": {"tested_on": "HCT-116", "assay": "Effect on DR5 protein expression in human HCT-116 cells incubated for 12 hrs by Western blot analysis", "format": "functional, cell-based", "conditions": "dose 0.125-0.5 µM, DDE = dose-dependent effect"}, "Histone deacetylase 11": {"molecular_target": "T1, Histone deacetylase 11 (Homo sapiens, UniProt Q96DB2)", "T1 sequence (Q96DB2 whole entry)": "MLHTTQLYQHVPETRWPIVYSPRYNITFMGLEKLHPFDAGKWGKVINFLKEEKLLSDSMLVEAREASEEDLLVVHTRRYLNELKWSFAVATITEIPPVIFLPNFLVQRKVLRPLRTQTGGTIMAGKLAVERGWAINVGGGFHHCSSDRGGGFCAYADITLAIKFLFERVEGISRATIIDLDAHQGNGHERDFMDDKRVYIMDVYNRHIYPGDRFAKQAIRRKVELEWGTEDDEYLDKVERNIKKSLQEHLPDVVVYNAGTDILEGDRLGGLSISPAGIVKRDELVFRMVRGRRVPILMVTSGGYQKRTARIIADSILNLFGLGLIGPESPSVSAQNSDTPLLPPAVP", "assay": "Inhibition of human HDAC11 using Boc-Lys(trifluoroacetyl)-AMC as fluorogenic substrate preincubated for 10 mins followed by substrate addition by fluorescence based analysis"}, "Histone deacetylase 2": {"molecular_target": "Histone deacetylase 2 (Homo sapiens, UniProt Q92769)", "sequence (Q92769 whole entry)": "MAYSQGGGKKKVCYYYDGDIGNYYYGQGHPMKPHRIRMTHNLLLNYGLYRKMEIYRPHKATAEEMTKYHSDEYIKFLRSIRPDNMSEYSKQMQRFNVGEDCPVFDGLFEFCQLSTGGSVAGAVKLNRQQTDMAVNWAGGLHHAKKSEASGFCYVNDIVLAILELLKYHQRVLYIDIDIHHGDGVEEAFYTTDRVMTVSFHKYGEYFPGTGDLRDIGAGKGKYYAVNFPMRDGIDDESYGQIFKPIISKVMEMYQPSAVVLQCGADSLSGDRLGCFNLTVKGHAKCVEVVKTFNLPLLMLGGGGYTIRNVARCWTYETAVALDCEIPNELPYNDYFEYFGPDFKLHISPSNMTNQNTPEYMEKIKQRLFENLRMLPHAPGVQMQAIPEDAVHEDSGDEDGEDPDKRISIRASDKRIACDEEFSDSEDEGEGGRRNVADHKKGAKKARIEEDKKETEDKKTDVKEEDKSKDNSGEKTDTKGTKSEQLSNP", "assay": "Inhibition of human HDAC2 using RHKKAc fluorogenic peptide as substrate preincubated for 10 mins followed by substrate addition by fluorescence based analysis"}, "HCT-116 [5]": {"tested_on": "HCT-116", "assay": "Antitumor activity against human HCT-116 cells xenografted in BALB/c mouse assessed as reduction in tumor growth at 12.5 mg/kg, po qd administered for 3 weeks and measured every 3 days by vernier caliper analysis", "format": "functional, organism-based"}, "HCT-116 [6]": {"tested_on": "HCT-116", "assay": "Induction of apoptosis in human HCT-116 cells assessed as dead cells at 0.5 uM incubated for 24 hrs by AnnexinV-FITC/PI staining based flow cytometry (reference value: 4.62 %)", "format": "functional"}, "Histone deacetylase 8": {"molecular_target": "T2, Histone deacetylase 8 (Homo sapiens, UniProt Q9BY41)", "T2 sequence (Q9BY41 whole entry)": "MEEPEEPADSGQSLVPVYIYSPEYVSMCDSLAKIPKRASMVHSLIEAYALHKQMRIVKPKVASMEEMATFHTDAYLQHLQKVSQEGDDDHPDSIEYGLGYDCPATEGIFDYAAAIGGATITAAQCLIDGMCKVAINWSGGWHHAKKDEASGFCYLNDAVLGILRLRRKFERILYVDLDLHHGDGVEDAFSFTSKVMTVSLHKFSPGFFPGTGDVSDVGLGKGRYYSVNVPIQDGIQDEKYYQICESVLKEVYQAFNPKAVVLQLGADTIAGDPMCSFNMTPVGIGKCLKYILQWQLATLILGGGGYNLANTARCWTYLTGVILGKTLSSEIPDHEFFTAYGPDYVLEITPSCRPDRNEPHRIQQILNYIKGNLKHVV", "assay": "Inhibition of human HDAC8 using RHKAcKAc as fluorogenic substrate preincubated for 10 mins followed by substrate addition by fluorescence based analysis"}, "HCT-116 [7]": {"tested_on": "HCT-116", "assay": "Induction of apoptosis in human HCT-116 cells assessed as early apoptotic cells at 0.25 uM incubated for 24 hrs by AnnexinV-FITC/PI staining based flow cytometry (reference value: 0.93 %)", "format": "functional"}, "HCT-116 [8]": {"tested_on": "HCT-116", "assay": "Induction of cell cycle arrest in human HCT-116 cells assessed as accumulation of cells at S phase incubated for 12 hrs by propidium iodide staining based flow cytometric analysis", "format": "functional", "conditions": "dose 0.125-0.5 µM, DDE = dose-dependent effect"}, "MV4-11": {"tested_on": "MV4-11", "assay": "Antiproliferative activity against human MV4-11 cells assessed as inhibition of cell growth incubated for 72 hrs by luminescence based analysis", "format": "functional", "conditions": "MV4-11, 72 h"}, "[9]": {"assay": "Toxicity in BALB/c mouse xenografted with human HCT-116 cells assessed as morphological changes in lung at 12.5 to 25 mg/kg, po qd administered for 21 days by H & E staining based microscopic analysis", "format": "organism-based", "conditions": "in vivo, 504 h, dose 12.5-25 mg/kg, time 21 day"}, "HCT-116 [10]": {"tested_on": "HCT-116", "assay": "Upregulation of DR5 mRNA expression in human HCT-116 cells at 0.25 uM incubated for 12 hrs by RT-PCR analysis", "format": "functional, cell-based"}, "Histone deacetylase 1 [11]": {"molecular_target": "T3, Histone deacetylase 1 (Homo sapiens, UniProt Q13547)", "T3 sequence (Q13547 whole entry)": "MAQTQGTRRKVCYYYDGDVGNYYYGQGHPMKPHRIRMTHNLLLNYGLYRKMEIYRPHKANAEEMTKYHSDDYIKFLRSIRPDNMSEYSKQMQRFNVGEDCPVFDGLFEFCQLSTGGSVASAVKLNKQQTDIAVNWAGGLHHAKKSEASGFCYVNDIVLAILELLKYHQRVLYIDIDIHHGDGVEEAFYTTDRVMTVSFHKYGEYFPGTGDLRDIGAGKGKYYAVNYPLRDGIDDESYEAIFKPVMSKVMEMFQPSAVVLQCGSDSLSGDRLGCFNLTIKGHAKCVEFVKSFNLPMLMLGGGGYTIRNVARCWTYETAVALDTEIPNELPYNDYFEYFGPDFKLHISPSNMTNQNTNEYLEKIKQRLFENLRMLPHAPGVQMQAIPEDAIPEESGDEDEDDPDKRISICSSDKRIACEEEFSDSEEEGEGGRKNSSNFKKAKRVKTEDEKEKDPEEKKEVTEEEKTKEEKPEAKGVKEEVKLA", "assay": "Inhibition of human HDAC1 using RHKKAc fluorogenic peptide as substrate preincubated for 10 mins followed by substrate addition by fluorescence based analysis"}, "HCT-116 [12]": {"tested_on": "HCT-116", "assay": "Induction of apoptosis in human HCT-116 cells assessed as viable cells at 0.25 uM incubated for 24 hrs by AnnexinV-FITC/PI staining based flow cytometry (reference value: 93.64%)", "format": "functional", "conditions": "read-out: Activity"}, "[13]": {"molecular_target": "Histone deacetylase 3/Nuclear receptor corepressor 2 (HDAC3/NCoR2) (Homo sapiens, UniProt O15379)", "sequence (O15379 whole entry)": "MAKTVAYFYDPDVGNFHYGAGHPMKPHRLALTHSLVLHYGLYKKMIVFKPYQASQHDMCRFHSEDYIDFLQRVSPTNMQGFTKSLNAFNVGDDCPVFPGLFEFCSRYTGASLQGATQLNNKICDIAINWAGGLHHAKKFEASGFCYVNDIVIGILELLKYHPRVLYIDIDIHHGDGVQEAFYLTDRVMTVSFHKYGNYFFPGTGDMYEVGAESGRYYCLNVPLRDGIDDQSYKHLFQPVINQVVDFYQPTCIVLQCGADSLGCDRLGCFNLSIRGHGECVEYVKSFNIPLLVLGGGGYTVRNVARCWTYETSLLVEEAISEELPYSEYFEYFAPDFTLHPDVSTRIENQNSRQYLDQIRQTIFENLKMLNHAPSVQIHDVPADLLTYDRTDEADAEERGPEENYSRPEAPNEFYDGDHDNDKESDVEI", "sequence (Q9Y618 whole entry, further chain)": "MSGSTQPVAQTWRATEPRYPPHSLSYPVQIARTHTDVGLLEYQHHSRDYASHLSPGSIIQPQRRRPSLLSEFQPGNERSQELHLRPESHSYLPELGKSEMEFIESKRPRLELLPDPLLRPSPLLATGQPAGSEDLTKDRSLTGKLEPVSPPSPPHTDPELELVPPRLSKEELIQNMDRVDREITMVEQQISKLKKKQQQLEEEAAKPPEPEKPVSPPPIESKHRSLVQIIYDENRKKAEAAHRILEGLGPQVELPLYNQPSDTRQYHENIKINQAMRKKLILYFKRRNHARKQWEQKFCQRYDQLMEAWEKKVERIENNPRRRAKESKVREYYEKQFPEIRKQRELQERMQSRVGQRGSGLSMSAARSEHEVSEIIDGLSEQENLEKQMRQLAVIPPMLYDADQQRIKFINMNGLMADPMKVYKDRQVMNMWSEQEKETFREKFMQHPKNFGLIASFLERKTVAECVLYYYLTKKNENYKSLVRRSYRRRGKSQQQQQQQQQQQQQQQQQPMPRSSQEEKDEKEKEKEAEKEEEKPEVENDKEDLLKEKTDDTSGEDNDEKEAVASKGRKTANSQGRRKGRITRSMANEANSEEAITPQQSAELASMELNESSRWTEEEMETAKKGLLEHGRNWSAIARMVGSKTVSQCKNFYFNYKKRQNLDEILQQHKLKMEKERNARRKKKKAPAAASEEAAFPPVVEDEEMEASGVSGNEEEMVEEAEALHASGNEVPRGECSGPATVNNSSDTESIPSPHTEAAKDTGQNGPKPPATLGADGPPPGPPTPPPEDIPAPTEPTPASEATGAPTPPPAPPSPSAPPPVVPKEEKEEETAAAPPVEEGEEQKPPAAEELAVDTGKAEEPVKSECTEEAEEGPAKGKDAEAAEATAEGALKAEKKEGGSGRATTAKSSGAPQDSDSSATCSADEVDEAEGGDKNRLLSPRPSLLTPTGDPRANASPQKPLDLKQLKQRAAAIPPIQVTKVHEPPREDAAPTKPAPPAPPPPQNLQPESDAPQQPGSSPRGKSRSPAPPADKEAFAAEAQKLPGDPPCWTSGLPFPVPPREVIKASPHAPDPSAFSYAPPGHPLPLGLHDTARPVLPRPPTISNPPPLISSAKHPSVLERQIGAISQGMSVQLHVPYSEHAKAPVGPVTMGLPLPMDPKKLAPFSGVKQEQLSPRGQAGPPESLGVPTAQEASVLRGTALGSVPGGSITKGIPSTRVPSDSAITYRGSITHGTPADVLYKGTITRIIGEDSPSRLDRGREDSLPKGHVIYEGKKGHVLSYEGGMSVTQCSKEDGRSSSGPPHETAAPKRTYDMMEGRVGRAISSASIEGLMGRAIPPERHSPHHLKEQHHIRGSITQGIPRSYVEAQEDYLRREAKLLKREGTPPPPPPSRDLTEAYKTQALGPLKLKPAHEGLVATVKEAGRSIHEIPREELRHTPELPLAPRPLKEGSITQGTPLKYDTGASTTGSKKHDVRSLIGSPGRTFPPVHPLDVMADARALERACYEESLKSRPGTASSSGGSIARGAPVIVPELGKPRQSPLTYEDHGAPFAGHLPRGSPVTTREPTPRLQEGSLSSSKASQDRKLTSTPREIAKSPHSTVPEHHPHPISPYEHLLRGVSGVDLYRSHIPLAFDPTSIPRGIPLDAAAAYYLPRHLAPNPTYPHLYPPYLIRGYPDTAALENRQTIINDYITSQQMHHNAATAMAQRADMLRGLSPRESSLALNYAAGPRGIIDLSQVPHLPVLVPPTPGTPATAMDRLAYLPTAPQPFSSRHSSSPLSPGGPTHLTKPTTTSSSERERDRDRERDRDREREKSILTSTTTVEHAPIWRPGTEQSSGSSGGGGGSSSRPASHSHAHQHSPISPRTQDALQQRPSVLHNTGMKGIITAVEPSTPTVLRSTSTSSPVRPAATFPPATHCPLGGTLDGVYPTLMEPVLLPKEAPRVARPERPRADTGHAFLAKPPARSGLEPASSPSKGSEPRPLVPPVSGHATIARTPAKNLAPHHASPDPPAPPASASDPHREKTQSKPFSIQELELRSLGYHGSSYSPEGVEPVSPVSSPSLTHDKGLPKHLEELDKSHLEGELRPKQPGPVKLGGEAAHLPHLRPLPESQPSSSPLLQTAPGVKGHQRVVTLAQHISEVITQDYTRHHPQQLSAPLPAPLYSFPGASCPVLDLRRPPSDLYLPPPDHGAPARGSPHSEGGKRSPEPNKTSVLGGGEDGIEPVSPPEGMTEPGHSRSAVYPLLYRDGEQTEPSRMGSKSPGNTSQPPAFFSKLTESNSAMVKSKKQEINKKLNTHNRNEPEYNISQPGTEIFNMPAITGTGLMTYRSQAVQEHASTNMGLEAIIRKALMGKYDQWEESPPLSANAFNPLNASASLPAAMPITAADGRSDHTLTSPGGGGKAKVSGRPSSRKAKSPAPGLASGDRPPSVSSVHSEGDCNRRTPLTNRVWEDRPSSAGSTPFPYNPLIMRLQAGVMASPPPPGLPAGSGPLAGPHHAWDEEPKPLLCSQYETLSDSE", "assay": "Inhibition of human HDAC3/NcoR2 using RHKKAc fluorogenic peptide as substrate preincubated for 10 mins followed by substrate addition by fluorescence based analysis", "format": "protein-complex assay"}, "HCT-116 [14]": {"tested_on": "HCT-116", "assay": "Effect on ac-H4 protein expression in human HCT-116 cells incubated for 12 hrs by Western blot analysis", "format": "functional, cell-based", "conditions": "dose 0.125-0.5 µM, DDE = dose-dependent effect"}, "HCT-116 [15]": {"tested_on": "HCT-116", "assay": "Induction of apoptosis in human HCT-116 cells assessed as late apoptotic cells at 0.5 uM incubated for 24 hrs by AnnexinV-FITC/PI staining based flow cytometry (reference value: 0.82 %)", "format": "functional"}, "HCT-116 [16]": {"tested_on": "HCT-116", "assay": "Induction of apoptosis in human HCT-116 cells assessed as late apoptotic cells at 0.25 uM incubated for 24 hrs by AnnexinV-FITC/PI staining based flow cytometry (reference value: 0.82 %)", "format": "functional"}, "[17]": {"assay": "Toxicity in BALB/c mouse xenografted with human HCT-116 cells assessed as morphological changes in liver at 12.5 to 25 mg/kg, po qd administered for 21 days by H & E staining based microscopic analysis", "format": "organism-based", "conditions": "in vivo, 504 h, dose 12.5-25 mg/kg, time 21 day"}, "Histone deacetylase 1 [18]": {"molecular_target": "T3, Histone deacetylase 1", "assay": "Inhibition of HDAC1 in human HCT-116 cells assessed as increase in TRAIL protein expression at 0.5 uM incubated for 12 hrs by Western blot analysis", "format": "cell-based"}, "HCT-116 [19]": {"tested_on": "HCT-116", "assay": "Induction of apoptosis in human HCT-116 cells assessed as early apoptotic cells at 0.125 uM incubated for 24 hrs by AnnexinV-FITC/PI staining based flow cytometry (reference value: 0.93 %)", "format": "functional"}, "Histone deacetylase 1 [20]": {"molecular_target": "T3, Histone deacetylase 1", "assay": "Inhibition of HDAC1 in human HCT-116 cells assessed as increase in Ac-H4 acetylation at 0.5 uM incubated for 12 hrs by Western blot analysis", "format": "cell-based"}, "Histone deacetylase 1 [21]": {"molecular_target": "T3, Histone deacetylase 1", "assay": "Inhibition of HDAC1 in human HCT-116 cells assessed as increase in DR5 protein expression at 0.5 uM incubated for 12 hrs by Western blot analysis", "format": "cell-based"}}, "note": "Active and inactive are the calls of the source. No cut-off for these calls is given here."}
{"smiles": "COc1ccccc1CN1C(=O)C2=C(CCN(Cc3ccc(C(=O)Nc4ccccc4N)cc3)C2)N2CCN=C12", "values": [{"measurement": "Activity", "setting": "[1]", "value": "Non-Toxic"}, {"measurement": "IC50", "setting": "Histone deacetylase 4", "value": "> 10", "unit": "µM"}, {"measurement": "T/C", "setting": "HCT-116 [2]", "value": 0.33}, {"measurement": "Activity", "setting": "HCT-116 [3]", "value": "Dde"}, {"measurement": "Activity", "setting": "HCT-116 [4]", "value": "Dde"}, {"measurement": "IC50", "setting": "Histone deacetylase 11", "value": "> 10", "unit": "µM"}, {"measurement": "IC50", "setting": "Histone deacetylase 2", "value": 0.346, "unit": "µM"}, {"measurement": "Activity", "setting": "HCT-116 [5]", "value": "Active"}, {"measurement": "Activity", "setting": "HCT-116 [6]", "value": 9.59, "unit": "%"}, {"measurement": "IC50", "setting": "Histone deacetylase 8", "value": "> 10", "unit": "µM"}, {"measurement": "Activity", "setting": "HCT-116 [7]", "value": 1.18, "unit": "%"}, {"measurement": "Activity", "setting": "HCT-116 [8]", "value": "Dde"}, {"measurement": "IC50", "setting": "MV4-11", "value": 0.563, "unit": "µM"}, {"measurement": "Activity", "setting": "[9]", "value": "Non-Toxic"}, {"measurement": "Activity", "setting": "HCT-116 [10]", "value": "Active"}, {"measurement": "IC50", "setting": "Histone deacetylase 1 [11]", "value": 0.156, "unit": "µM"}, {"measurement": "viability at 0.25 µM", "setting": "HCT-116 [12]", "value": 93, "unit": "%"}, {"measurement": "IC50", "setting": "[13]", "value": 0.589, "unit": "µM"}, {"measurement": "Activity", "setting": "HCT-116 [14]", "value": "Dde"}, {"measurement": "Activity", "setting": "HCT-116 [15]", "value": 2, "unit": "%"}, {"measurement": "Activity", "setting": "HCT-116 [16]", "value": 1.82, "unit": "%"}, {"measurement": "Activity", "setting": "[17]", "value": "Non-Toxic"}, {"measurement": "inhibition", "setting": "Histone deacetylase 1 [18]", "value": "Active"}, {"measurement": "Activity", "setting": "HCT-116 [19]", "value": 0.87, "unit": "%"}, {"measurement": "inhibition", "setting": "Histone deacetylase 1 [20]", "value": "Active"}, {"measurement": "inhibition", "setting": "Histone deacetylase 1 [21]", "value": "Active"}]}
